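Interpolation was linear, between the two tested concentrations surrounding the appropriate level; five concentrations were tested over 48 hours in 96-well plates. GI50 marks 50% less growth. TGI marks complete inhibition of growth.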
Columns and labels:
Assay in all cases: NCI anticancer screen, dose series, 48 h
SK-MEL-28 melanoma = system: SK-MEL-28 melanoma
SF-295 CNS = system: SF-295 CNS
SNB-19 CNS = system: SNB-19 CNS
M14 melanoma = system: M14 melanoma
PC-3 prostate = system: PC-3 prostate
SF-268 CNS = system: SF-268 CNS
T-47D breast = system: T-47D breast
DU-145 prostate = system: DU-145 prostate
NCI/ADR-RES ovarian = system: NCI/ADR-RES ovarian
HS 578T breast = system: HS 578T breast

Structure (SMILES)	TGI (SK-MEL-28 melanoma) [µM]	TGI (SF-295 CNS) [µM]	TGI (SNB-19 CNS) [µM]	TGI (M14 melanoma) [µM]	GI50 (PC-3 prostate) [µM]	TGI (PC-3 prostate) [µM]	GI50 (SF-268 CNS) [µM]	TGI (SF-268 CNS) [µM]	GI50 (SK-MEL-28 melanoma) [µM]	GI50 (T-47D breast) [µM]	TGI (T-47D breast) [µM]	GI50 (SF-295 CNS) [µM]	GI50 (SNB-19 CNS) [µM]	GI50 (DU-145 prostate) [µM]	TGI (DU-145 prostate) [µM]	GI50 (NCI/ADR-RES ovarian) [µM]	TGI (NCI/ADR-RES ovarian) [µM]	GI50 (HS 578T breast) [µM]	TGI (HS 578T breast) [µM]	GI50 (M14 melanoma) [µM]
CCOC(=O)NC(=O)c1cn(CCCOC(=O)CCCCCCCCC(=O)OCCCn2cc(C(=O)NC(=O)OCC)c(=O)[nH]c2=O)c(=O)[nH]c1=O	64.8	50.2	57.4	76																
N#CSCC1CC(O)(c2ccccc2)C(c2ccccc2)C(c2ccc(F)cc2)O1 (stereo not given)	8.79	7.08	> 70.3	4.09	2.14	11.3	2.57	7.25	2.93	3.17	> 37.3	1.88	19	2.16	5	3.13	11.9	3.18	12.9	1.84
O=C(O)c1ccc([N+](=O)[O-])c2c(=O)c3ccccc3[nH]c12		> 100	> 100	> 100				> 100												
COC[C@H]1OC(=O)c2coc3c2[C@@]1(C)C1=C(C3=O)[C@@H]2CCC(=O)[C@@]2(C)C[C@H]1OC(C)=O	> 100	63.1	> 100	> 59		> 100		> 100			> 46.2				> 100		> 100	0.341	6.9	
COc1ccc(C=NC23CC4CC(CC(C4)C2)C3)cc1	> 100	> 100	> 100	> 100				> 100												
C=C(CN1CCN(c2ccccc2F)CC1)c1ccc(C(=O)Nc2ccccc2N)cc1	53.9	18	> 100		1.21	4.01	2.36	> 100	2.57	3.84	> 100	2.38	3.74	1.6	6.06			3.14	> 100	
O=Cc1[nH]c2ccccc2c1Br	59.4	> 100	67.2	46.3				69.8												
Cc1cc2c(c(C#N)c1C)NC(=O)C(CC(=O)O)C2=O (stereo not given)	> 100	> 100		> 100				> 100												
Cc1cccc(C)c1NC(=O)C(=O)CC(=O)CO	> 100	> 100	> 100	> 100				> 100												
O=C(c1ccc(NCN2C(=O)CCC2=O)cc1)c1ccc(NCN2C(=O)CCC2=O)cc1	> 100	> 100	> 100	> 100				> 100												
O=C1NC2(O)c3ccccc3C(=O)C2(O)N1c1ccccc1 (stereo not given)	> 100	> 100	> 100	> 100				> 100												
Cc1nn2c(/C=C3/C(=O)Nc4ccc(Cl)cc43)c(-c3ccccc3)nc2s1	7.06	5.76	34.2	21.5	1.79	5.37	2.06	5.19	2.65	1.71	11.5	2.02	9.54	2.69	7.2			2.45	7.79	6.33
c1ccc2[nH]c(-c3ccc(OCCCCCOc4ccc(-c5nc6ccccc6[nH]5)cc4)cc3)nc2c1	0.903	13.1	> 28.4	4.31	2.76	8.05			0.394	0.822	2.13	5.61	5.97	0.639	3.41	2.28	7.2	1.3	4.41	1.73
O=C(Nc1ccc(Nc2ccncc2)cc1)c1ccc(Nc2ccnc3ccc([N+](=O)[O-])cc23)cc1	> 100		> 100	> 100	> 100	> 100	29.9	> 100	63.8	> 100	> 100		> 100	> 100	> 100	> 100	> 100	> 100	> 100	> 100
CC(=O)O[C@@H]1CC(C)C2CC2C2=C(C(O)OC2O)[C@@H]1C(C)CCC=C(C)C (stereo not given in full)	> 100		99.5	> 100				65.5												
COC1=C(C(=O)OC(C)(C)C)[C@]2(C)C(C(=O)OC(C)(C)C)C(OC)=C(C(=O)OC(C)(C)C)[C@]2(C)C1C(=O)OC(C)(C)C (stereo not given in full)		> 100	> 100	> 100				> 100												
Cc1cc(N/N=C/c2nc(-c3ccccc3)oc2C)c2cc(Cl)ccc2n1	3.16	3.2	4.86	3.54	1.8	3.55			1.71	2.02	4.22	1.69	2.12	2.15	4.49	1.84	3.95			1.83
N#CC(C#N)=CN1CCN(C(=O)c2ccccc2)C1=S	> 100	> 100	> 100	> 100	60	> 100	21.3	49	45.4	89.2	> 100	46.2	> 100	24.4	85.9	> 100	> 100			37.3
O[C@]12CCCC[C@H]1CCC2	> 100	> 100	> 100	> 100				> 100												
CC(=S)NNC(=O)c1ccncc1	> 100	> 100	> 100	> 100				> 100												
COC1CC(OS(=O)(=O)c2ccc(C)cc2)C(OS(=O)(=O)c2ccc(C)cc2)C(COS(=O)(=O)c2ccc(C)cc2)O1 (stereo not given)	13.4	4.38	5.58	17.8				3.02												

Source: PubChem BioAssay (NCI)
